“Also recorded” adds a separate entry of the source. Read-outs that look alike come from different tables or passages of the source.
Assay: Accelerated stability studies of API/stabilizer preparations (lactam impurity A by HPLC)
Format: physicochemical

| SMILES | effect of EUDRAGIT E on formation of lactam impurity A | effect of EUDRAGIT E on formation of lactam impurity A (with EUDRAGIT E PO 1, 5, 10% (m/m), stored at 60° C. in closed glass vials, HPLC) |
| --- | --- | --- |
| NCC1(CC(=O)O)CCCCC1 [gabapentin] | destabilization effect |  |
| CC(C)C[C@H](CN)CC(=O)O [pregabalin] | destabilization effect |  |
| NCC(CC(=O)O)c1ccc(Cl)cc1 (stereo not drawn) [baclofen, 4-amino-3-(4-chlorophenyl)butanoic acid] |  | stabilized; also recorded: stabilization effect |
